Measurements reported in PubChem BioAssay (NCI).
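Each compound was tested at five concentrations against cells in 96-well plates for 48 hours. GI50 marks 50% less growth. TGI: total growth inhibition.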

Assays:
Assay in all cases: DTP human tumour cell line panel, 48 h
[1] = test system: 786-0 renal
[2] = test system: A498 renal
[3] = test system: A549 NSCLC
[4] = test system: ACHN renal
[5] = test system: BT-549 breast
[6] = test system: CAKI-1 renal
[7] = test system: CCRF-CEM leukemia
[8] = test system: COLO 205 colon
[9] = test system: DU-145 prostate
[10] = test system: HCC-2998 colon
[11] = test system: HL-60(TB) leukemia
[12] = test system: HOP-62 NSCLC
[13] = test system: HOP-92 NSCLC
[14] = test system: HS 578T breast
[15] = test system: HT29 colon
[16] = test system: IGROV1 ovarian
[17] = test system: K-562 leukemia
[18] = test system: KM12 colon
[19] = test system: LOX IMVI melanoma
[20] = test system: M14 melanoma
[21] = test system: MALME-3M melanoma
[22] = test system: MCF7 breast
[23] = test system: MDA-MB-231 breast
[24] = test system: MDA-MB-435
[25] = test system: MOLT-4 leukemia
[26] = test system: NCI-H226 lung
[27] = test system: NCI-H23 lung
[28] = test system: NCI-H460 lung
[29] = test system: NCI-H522 lung
[30] = test system: NCI/ADR-RES ovarian
[31] = test system: OVCAR-3 ovarian
[32] = test system: OVCAR-4 ovarian
[33] = test system: OVCAR-5 ovarian
[34] = test system: OVCAR-8 ovarian
[35] = test system: PC-3 prostate
[36] = test system: RPMI-8226 leukemia
[37] = test system: RXF 393 renal
[38] = test system: SF-268 CNS
[39] = test system: SF-539 CNS
[40] = test system: SK-MEL-2 melanoma
[41] = test system: SK-MEL-28 melanoma
[42] = test system: SK-MEL-5 melanoma
[43] = test system: SK-OV-3 ovarian
[44] = test system: SN12C renal
[45] = test system: SNB-19 CNS
[46] = test system: SR leukemia
[47] = test system: SW-620 colon
[48] = test system: T-47D breast
[49] = test system: TK-10 renal
[50] = test system: U251 CNS
[51] = test system: UACC-257 melanoma
[52] = test system: UACC-62 melanoma
[53] = test system: UO-31 renal
[54] = test system: HCT-116 colon
[55] = test system: HCT-15 colon
[56] = test system: SF-295 CNS
[57] = test system: SNB-75 CNS

Compound: C=C1c2c(C)nn(-c3ccc(C#CCOC4OC(CO)C(O)C(O)C4O)cc3)c2N(C)C23C[C@H]1C1(C)c4c(C)nn(-c5ccc(C#CCOC6OC(CO)C(O)C(O)C6O)cc5)c4N(C)C(C)(C[C@H]12)C3 (stereo partly specified)
- GI50 [1]: 2.66 µM
- TGI [1]: 7.78 µM
- GI50 [2]: 1.5 µM
- TGI [2]: 3.18 µM
- GI50 [3]: 1.68 µM
- TGI [3]: 4.09 µM
- GI50 [4]: 2.42 µM
- TGI [4]: 10.6 µM
- GI50 [5]: 1.3 µM
- TGI [5]: 2.97 µM
- GI50 [6]: 2.81 µM
- TGI [6]: 11.6 µM
- GI50 [7]: 1.04 µM
- TGI [7]: 5.03 µM
- GI50 [8]: 1.47 µM
- TGI [8]: 2.88 µM
- GI50 [9]: 1.97 µM
- TGI [9]: 5.16 µM
- GI50 [10]: 1.57 µM
- TGI [10]: 3.15 µM
- GI50 [11]: 2.07 µM
- TGI [11]: 4.43 µM
- GI50 [12]: 1.49 µM
- TGI [12]: 2.88 µM
- GI50 [13]: 0.437 µM
- TGI [13]: 2.52 µM
- GI50 [14]: 0.472 µM
- TGI [14]: 9.85 µM
- GI50 [15]: 1.63 µM
- TGI [15]: 4.21 µM
- GI50 [16]: 1.56 µM
- TGI [16]: 3.95 µM
- GI50 [17]: 1.89 µM
- TGI [17]: 6.75 µM
- GI50 [18]: 1.44 µM
- TGI [18]: 2.9 µM
- GI50 [19]: 1.37 µM
- TGI [19]: 2.79 µM
- GI50 [20]: 1.67 µM
- TGI [20]: 3.44 µM
- GI50 [21]: 1.87 µM
- TGI [21]: 3.66 µM
- GI50 [22]: 1.38 µM
- TGI [22]: 3.2 µM
- GI50 [23]: 1.5 µM
- TGI [23]: 3.06 µM
- GI50 [24]: 1.67 µM
- TGI [24]: 3.77 µM
- GI50 [25]: 1.28 µM
- TGI [25]: 3.88 µM
- GI50 [26]: 1.62 µM
- TGI [26]: 3.7 µM
- GI50 [27]: 2.33 µM
- TGI [27]: 6.59 µM
- GI50 [28]: 1.69 µM
- TGI [28]: 3.85 µM
- GI50 [29]: 1.67 µM
- TGI [29]: 3.26 µM
- GI50 [30]: 5.43 µM
- TGI [30]: 47 µM
- GI50 [31]: 1.52 µM
- TGI [31]: 3.8 µM
- GI50 [32]: 1.68 µM
- TGI [32]: 9.94 µM
- GI50 [33]: 1.78 µM
- TGI [33]: 3.54 µM
- GI50 [34]: 1 µM
- TGI [34]: 3.84 µM
- GI50 [35]: 0.702 µM
- TGI [35]: 2.56 µM
- GI50 [36]: 0.29 µM
- TGI [36]: 1.72 µM
- GI50 [37]: 1.62 µM
- TGI [37]: 3.52 µM
- GI50 [38]: 1.75 µM
- TGI [38]: 3.57 µM
- GI50 [39]: 1.78 µM
- TGI [39]: 3.33 µM
- GI50 [40]: 1.76 µM
- TGI [40]: 3.39 µM
- GI50 [41]: 1.9 µM
- TGI [41]: 3.52 µM
- GI50 [42]: 1.38 µM
- TGI [42]: 2.71 µM
- GI50 [43]: 1.72 µM
- TGI [43]: 3.11 µM
- GI50 [44]: 1.38 µM
- TGI [44]: 3.72 µM
- GI50 [45]: 1.66 µM
- TGI [45]: 3.95 µM
- GI50 [46]: 3.28 µM
- TGI [46]: > 100 µM
- GI50 [47]: 1.72 µM
- TGI [47]: 3.77 µM
- GI50 [48]: 0.687 µM
- TGI [48]: 6.8 µM
- GI50 [49]: 2.01 µM
- TGI [49]: 4.04 µM
- GI50 [50]: 1.19 µM
- TGI [50]: 2.59 µM
- GI50 [51]: 1.82 µM
- TGI [51]: 4.56 µM
- GI50 [52]: 1.22 µM
- TGI [52]: 2.86 µM
- GI50 [53]: 2.83 µM
- TGI [53]: 10.1 µM

Compound: NC(CSC(c1ccccc1)(c1ccccc1)c1ccccc1)C(=O)NCC(=O)O (stereo unspecified)
- GI50 [1]: 6.78 µM
- TGI [1]: > 100 µM
- GI50 [2]: 4.31 µM
- TGI [2]: 86.1 µM
- GI50 [3]: 8 µM
- TGI [3]: > 100 µM
- GI50 [4]: 18.9 µM
- TGI [4]: > 100 µM
- GI50 [5]: 10.1 µM
- TGI [5]: > 100 µM
- GI50 [6]: 37.1 µM
- TGI [6]: > 100 µM
- GI50 [7]: 3.68 µM
- TGI [7]: > 100 µM
- GI50 [8]: 3.39 µM
- TGI [8]: > 100 µM
- GI50 [9]: 18.9 µM
- TGI [9]: > 100 µM
- GI50 [10]: 2.57 µM
- TGI [10]: 22.2 µM
- GI50 [54]: 3.97 µM
- TGI [54]: > 100 µM
- GI50 [55]: 4.89 µM
- TGI [55]: > 100 µM
- GI50 [11]: 2.85 µM
- TGI [11]: 12 µM
- GI50 [12]: 8.16 µM
- TGI [12]: > 100 µM
- GI50 [13]: 5.01 µM
- TGI [13]: > 100 µM
- GI50 [14]: 3.29 µM
- TGI [14]: 25.1 µM
- GI50 [15]: 22 µM
- TGI [15]: 97.6 µM
- GI50 [16]: 10.7 µM
- TGI [16]: > 100 µM
- GI50 [17]: 3.19 µM
- TGI [17]: > 100 µM
- GI50 [18]: 3.96 µM
- TGI [18]: 38.4 µM
- GI50 [19]: 7.66 µM
- TGI [19]: > 100 µM
- GI50 [20]: 3.73 µM
- TGI [20]: 23.2 µM
- GI50 [21]: 5.3 µM
- TGI [21]: > 100 µM
- GI50 [22]: 3.87 µM
- TGI [22]: > 100 µM
- GI50 [23]: 2.65 µM
- TGI [23]: 9.42 µM
- GI50 [24]: 2.38 µM
- TGI [24]: 6.8 µM
- GI50 [25]: 16 µM
- TGI [25]: 86.3 µM
- GI50 [26]: 23.4 µM
- TGI [26]: > 100 µM
- GI50 [28]: 4.27 µM
- TGI [28]: 78.8 µM
- GI50 [29]: 2.39 µM
- TGI [29]: 7.13 µM
- GI50 [30]: 26.5 µM
- TGI [30]: > 100 µM
- GI50 [31]: 5.15 µM
- TGI [31]: 37.2 µM
- GI50 [32]: 17.4 µM
- TGI [32]: 95.6 µM
- GI50 [33]: 22.5 µM
- TGI [33]: > 100 µM
- GI50 [34]: 5.35 µM
- TGI [34]: > 100 µM
- GI50 [35]: 5.25 µM
- TGI [35]: > 100 µM
- GI50 [36]: 3.42 µM
- TGI [36]: 24.5 µM
- GI50 [37]: 2.84 µM
- TGI [37]: 19.5 µM
- GI50 [38]: 5.38 µM
- TGI [38]: > 100 µM
- GI50 [56]: 6.1 µM
- TGI [56]: > 100 µM
- GI50 [39]: 2.54 µM
- TGI [39]: 7.46 µM
- GI50 [40]: 2.71 µM
- TGI [40]: 7.93 µM
- GI50 [41]: 8.19 µM
- TGI [41]: > 100 µM
- GI50 [42]: 3.4 µM
- TGI [42]: 31.4 µM
- GI50 [43]: 4.33 µM
- TGI [43]: 43.7 µM
- GI50 [44]: 4.05 µM
- TGI [44]: > 100 µM
- GI50 [45]: 8.33 µM
- TGI [45]: > 100 µM
- GI50 [57]: 2.95 µM
- TGI [57]: 27.7 µM
- GI50 [46]: 3.48 µM
- TGI [46]: 38.2 µM
- GI50 [47]: 3.59 µM
- TGI [47]: > 100 µM
- GI50 [48]: 11.6 µM
- TGI [48]: > 100 µM
- GI50 [50]: 3.64 µM
- TGI [50]: 63.8 µM
- GI50 [51]: 5.19 µM
- TGI [51]: > 100 µM
- GI50 [52]: 7.25 µM
- TGI [52]: > 100 µM
- GI50 [53]: 31.3 µM
- TGI [53]: > 100 µM
